For one data set, the system named is LNCaP ARE-Luc. In words: Luciferase assay in LNCaP cell lysates (LNCaP ARE-Luc). In kind it is cell-based. The note with it: Homo sapiens, Firefly Luciferase Assay System, read-out: LNCaP ARE-Luc % inhibition IC50 Ranges. The procedure:
Lysates were thawed on ice then collected into V-bottom 96-well tissue culture plates. Lysates were centrifuged at 4° C. for 5 minutes at 4000 rpm. To measure luminescence of LNCaP cell lysates the Firefly Luciferase Assay System (Promega) was employed, according to manufacturer's protocol. Relative luminescence units (RLU) in cell lysates were detected for 10 seconds using Promega GoMax-Multi Detection Luminometer (Promega).
Statistical analyses were performed using GraphPad Prism (Version 6.01 for Windows; La Jolla, Calif., USA). Comparisons between treatment and control groups were compared using Two-Way ANOVA with post-hoc Dunnett's and Tukey's tests. Differences were considered statistically significant at P values less than 0.05. Densitometric quantification of relative AR levels was determined by Image.

Data set [1] in a line: Microsomal stability assay, HLM. It counts as in vitro ADME. Particulars: human, pH 7.4, 1 μM test compound, 0.5 mg/mL liver microsomes protein, 37° C., 0-60 min, read-out: HLM +/− NADPH: Clint (μL/min/mg protein). An excerpt:
Microsomal Stability Assay: Microsomal stability assay is a widely used in vitro model to characterize the metabolic conversion by phase I enzymes, such as cytochrome P450 (CYP) enzymes. Since metabolism is known to be highly variable in different species, microsomal stability assay is commonly run in multiple species. Metabolic stability of testing compound can be evaluated using human, rat, mouse, or other animal liver or intestine microsomes to predict intrinsic clearance.
The assay was carried out in 96-well microtiter plates at 37° C. Reaction mixtures (25 μL) contained a final concentration of 1 μM test compound, 0.5 mg/mL liver microsomes protein, and 1 mM NADPH and/or 1 mM UDPGA (with alamethicin) in 100 mM potassium phosphate, pH 7.4 buffer with 3 mM MgCl2. The incubation was done with N=1, but duplicate incubation at each time point can be prepared if necessary. At each of the time points (for example, 0, 15, 30, and 60 minutes), 150 μL of quench solution (100% acetonitrile with 0.1% formic acid) with internal standard was transferred to each well. Besides the zero minute controls, mixtures containing the same components except the NADPH can also be prepared as the negative control. Verapamil was included as a positive control to verify assay performance. Plates were sealed, vortexed, and centrifuged at 4° C. for 15 minutes at 4000 rpm. The supernatant is transferred to fresh plates for LC/MS/MS analysis.
Summarized conditions: [Compound]=1 μM, [LM]=0.5 mg/mL, [NADPH]=1 mM and/or [UDPGA]=1 mM, Buffer=100 mM Potassium Phosphate, pH 7.4 with 3 mM MgCl2, Time=0, 15, 30, and 60 min, and Temperature=37° C.
All samples were analyzed on LC/MS/MS using an AB Sciex API 4000 instrument, coupled to a Shimadzu LC-20AD LC Pump system. Analytical samples were separated using a Waters Atlantis T3 dC18 reverse phase HPLC column (20 mm×2.1 mm) at a flow rate of 0.5 mL/min. The mobile phase consisted of 0.1% formic acid in water (solvent A) and 0.1% formic acid in 100% acetonitrile (solvent B).
The extent of metabolism is calculated as the disappearance of the test compound, compared to the 0-min time incubation. Initial rates are calculated for the compound concentration and used to determine half-life (t½) values and subsequently, the intrinsic clearance (Clint). Clint=(0.693)(1/t½ (min))(g of liver/kg of body weight)(mL incubation/mg of microsomal protein)(45 mg of microsomal protein/g of liver weight)
In general terms: Liver microsomes are vesicles of endoplasmic reticulum, rich in cytochrome P450 enzymes.

pIC50: −log10 of the molar value. Bounds are passed on as bounds.

Broadly, the pIC50 is the IC50 on a negative log10 scale, so that one unit is a factor of ten. Turning to `CC(C)(c1ccc(OCC(=O)CS(C)(=O)=O)cc1)c1cc(Cl)c(OC[C@H](O)CCl)c(Cl)c1` [A54(S), (S)-1-(4-(2-(3,5-dichloro-4-(3-chloro-2-hydroxypropoxy)phenyl)propan-2-yl)phenoxy)-3-(methylsulfonyl)propan-2-one], the negative logarithm of the IC50 (pIC50) with LNCaP ARE-Luc is no more than 6.60.
Consider `COc1cc(OCCCCl)ccc1C(C)(C)c1ccc(OCC(=O)CNS(C)(=O)=O)cc1` [Compound A4], for which the pIC50 in the data set on LNCaP ARE-Luc was no more than 6.60. Moreover, in data set [1], the microsomal CLint at 1 μM was no less than 48 µL/min/mg.
With `CC(C)(c1ccc(OCC(=O)CNS(C)(=O)=O)cc1)c1ccc(OCCCCl)cc1Cl` [Compound A6], the pIC50 in the data set on LNCaP ARE-Luc was no more than 6.60. Further, the microsomal CLint at 1 μM in data set [1] was no less than 48 µL/min/mg.
As to `CC(C)(c1ccc(OCC(=O)CNS(C)(=O)=O)cc1)c1ccc(OCCCCl)c(C#N)c1` [Compound A7], the pIC50 with LNCaP ARE-Luc was greater than 7.00. In data set [1], the microsomal CLint at 1 μM is no less than 48 µL/min/mg.
In the same order, the values of `COc1cc(C(C)(C)c2ccc(OCCCCl)cc2)ccc1OCC(=O)CNS(C)(=O)=O` [Compound A11] are no more than 6.60 and no less than 48 µL/min/mg.
In the same order, the values of `COc1cc(OCC(=O)CNS(C)(=O)=O)ccc1C(C)(C)c1ccc(OCCCCl)cc1` [Compound A12] are no more than 6.60 and no less than 48 µL/min/mg.
In the same order, the values of `CC(C)(c1ccc(OCCCCl)cc1)c1ccc(OCC(=O)CNS(C)(=O)=O)cc1Cl` [Compound A14] are no more than 6.60 and no less than 48 µL/min/mg.
For `CC(C)(c1ccc(OCCCCl)cc1)c1ccc(OCC(=O)CNS(C)(=O)=O)c(C#N)c1` [Compound A15], the negative-log IC50 (pIC50) in the data set on LNCaP ARE-Luc was no more than 6.60. Moreover, the microsomal CLint at 1 μM in data set [1] is no less than 48 µL/min/mg.
The corresponding values for `CS(=O)(=O)NCC(=O)COc1cccc(Cc2ccc(Cl)c(OCCCCl)c2Cl)c1` [Compound A24] are no more than 6.60 and no less than 48 µL/min/mg.
The corresponding values for `CC(CCl)COc1c(Cl)cc(C(C)(C)c2ccc(OCC(=O)CNS(C)(=O)=O)cc2)cc1Cl` (stereo not shown) [Compound A32] are greater than 7.00 and no less than 48 µL/min/mg.
Turning to `CC(C)(c1ccc(OCC(=O)CNS(C)(=O)=O)cc1)c1cc(Cl)c(OCCCl)c(Cl)c1` [Compound A33, N-(3-(4-(2-(3,5-dichloro-4-(2-chloroethoxy)phenyl)propan-2-yl)phenoxy)-2-oxopropyl)methanesulfonamide], in the data set with LNCaP ARE-Luc, the pIC50 is greater than 7.00. The microsomal CLint at 1 μM in data set [1] was no less than 48 µL/min/mg.
In the case of `CC(C)(c1ccc(OCC(=O)CNS(C)(=O)=O)cc1)c1cc(Cl)c(NCCCCl)c(Cl)c1` [Compound A35], the negative logarithm of the IC50 (pIC50) with LNCaP ARE-Luc was 6.60 to 7.00. In data set [1], the microsomal CLint at 1 μM is no less than 48 µL/min/mg.
Regarding `CN(CCCCl)c1c(Cl)cc(C(C)(C)c2ccc(OCC(=O)CNS(C)(=O)=O)cc2)cc1Cl` [Compound A36], the pIC50 in the data set on LNCaP ARE-Luc was 6.60 to 7.00. Also, the microsomal CLint at 1 μM in data set [1] was no less than 48 µL/min/mg.
In the same order, the values of `CC(C)(c1ccc(OCC(=O)CNS(C)(=O)=O)cc1)c1cc(Cl)c(OCc2ccc(Cl)cc2)c(Cl)c1` [Compound A38] are no more than 6.60 and no less than 48 µL/min/mg.
On to `CS(=O)(=O)NCC(=O)COc1ccc(C2(c3cc(Cl)c(OCCCCl)c(Cl)c3)COC2)cc1` [Compound A43, N-(3-(4-(3-(3,5-dichloro-4-(3-chloropropoxy)phenyl)oxetan-3-yl)phenoxy)-2-oxopropyl)methanesulfonamide], for which, in the data set with LNCaP ARE-Luc, the pIC50 was greater than 7.00. In addition, the microsomal CLint at 1 μM in data set [1] was no less than 48 µL/min/mg.
The corresponding values for `CC(C)(c1ccc(OCC(=O)N2CCN(S(C)(=O)=O)CC2)cc1)c1cc(Cl)c(OCCCCl)c(Cl)c1` [Compound A44] are no more than 6.60 and 12 to 48 µL/min/mg.
Turning to `CC(C)(c1ccc(NC(=O)CCNS(C)(=O)=O)cc1)c1cc(Cl)c(OCCCCl)c(Cl)c1` [Compound A45], in the data set with LNCaP ARE-Luc, the pIC50 was no more than 6.60. In data set [1], the microsomal CLint at 1 μM is less than 12 µL/min/mg.
As to `CC(C)(c1ccc(CNC(=O)CNS(C)(=O)=O)cc1)c1cc(Cl)c(OCCCCl)c(Cl)c1` [Compound A46, N-(4-(2-(3,5-dichloro-4-(3-chloropropoxy)phenyl)propan-2-yl)benzyl)-2-(methylsulfonamido)acetamide], the pIC50 in the data set on LNCaP ARE-Luc was no more than 6.60. The microsomal CLint at 1 μM in data set [1] lay within 12 to 48 µL/min/mg.
In the same order, the values of `CN(C)C(=O)NCc1ccc(C(C)(C)c2cc(Cl)c(OCCCCl)c(Cl)c2)cc1` [Compound A47] are no more than 6.60 and no less than 48 µL/min/mg.
In the same order, the values of `CC(C)(c1ccc(OCC(=O)CNS(C)(=O)=O)c(F)c1)c1cc(Cl)c(OCCCCl)c(Cl)c1` [Compound A48] are 6.60 to 7.00 and no less than 48 µL/min/mg.
In the same order, the values of `CC(O)(CCl)COc1c(Cl)cc(C(C)(C)c2ccc(OCC(=O)CNS(C)(=O)=O)cc2)cc1Cl` (stereo not shown) [Compound A52, N-(3-(4-(2-(3,5-dichloro-4-(3-chloro-2-hydroxy-2-methylpropoxy)phenyl)propan-2-yl)phenoxy)-2-oxopropyl)methanesulfonamide] are greater than 7.00 and no less than 48 µL/min/mg.
Turning to `CC(O)(CCl)COc1c(Cl)cc(C(C)(C)c2ccc(OCC(=O)CS(C)(=O)=O)cc2)cc1Cl` (stereo not shown) [Compound A53, 1-(4-(2-(3,5-dichloro-4-(3-chloro-2-hydroxy-2-methypropoxy)phenyl)propan-2-yl)phenoxy)-3-(methylsulfonyl)propan-2-one], the pIC50 with LNCaP ARE-Luc was no more than 6.60.
On to `CC(C)(c1ccc(OCC(=O)NCCNS(C)(=O)=O)cc1)c1cc(Cl)c(OCCCCl)c(Cl)c1` [Compound A62], for which the pIC50 in the data set with LNCaP ARE-Luc was no more than 6.60. Besides, in data set [1], the microsomal CLint at 1 μM lay in the range of 12 to 48 µL/min/mg.
In the same order, the values of `CC(C)(Oc1ccc(C(C)(C)c2cc(Cl)c(OCCCCl)c(Cl)c2)cc1)C(=O)CNS(C)(=O)=O` [Compound A63] are greater than 7.00 and no less than 48 µL/min/mg.
The corresponding values for `CC(C)(NS(C)(=O)=O)C(=O)COc1ccc(C(C)(C)c2cc(Cl)c(OCCCCl)c(Cl)c2)cc1` [Compound A64] are no more than 6.60 and less than 12 µL/min/mg.
`CC(=O)COc1ccc(C(C)(C)c2cc(Cl)c(OCCCCl)c(Cl)c2)cc1` [Compound A74, 1-(4-(2-(3,5-dichloro-4-(3-chloropropoxy)phenyl)propan-2-yl)phenoxy)propan-2-one]: the pIC50 in the data set on LNCaP ARE-Luc was no more than 6.60.
`CC(C)(c1ccc(OC(F)(F)C(=O)C(N)=O)cc1)c1cc(Cl)c(OCCCCl)c(Cl)c1` [Compound A92]: the negative-log IC50 (pIC50) in the data set on LNCaP ARE-Luc was no more than 6.60.
In the case of `CC(=O)C(=O)Nc1ccc(C(C)(C)c2cc(Cl)c(OCC(C)(O)CCl)c(Cl)c2)cc1` (stereo not shown) [Compound A96], the pIC50 in the data set on LNCaP ARE-Luc is no more than 6.60.
Same read-out and setting: with `COC(=O)C(OC)C(O)(O)C(F)(F)Oc1ccc(C(C)(C)c2cc(Cl)c(OCCCCl)c(Cl)c2)cc1` (stereo not shown) [Compound A97] the figure was 6.60 to 7.00; with `CC(C)(c1ccc(OC(F)(F)C(=O)CNS(C)(=O)=O)cc1)c1cc(Cl)c(OCCCCl)c(Cl)c1` [Compound A99, N-(3-(4-(2-(3,5-dichloro-4-(3-chloropropoxy)phenyl)propan-2-yl)phenoxy)-3,3-difluoro-2-oxopropyl)methanesulfonamide], 6.60 to 7.00.
On the same count and under the same terms, with `COCC(=O)C(F)(F)Oc1ccc(C(C)(C)c2cc(Cl)c(OCCCCl)c(Cl)c2)cc1` [Compound A100, 1-(4-(2-(3,5-dichloro-4-(3-chloropropoxy)phenyl)propan-2-yl)phenoxy)-1,1-difluoro-3-methoxypropan-2-one] the figure was no more than 6.60; with `CCOC(=O)CC(=O)C(F)(F)Oc1ccc(C(C)(C)c2cc(Cl)c(OCCCCl)c(Cl)c2)cc1` [Compound A101], no more than 6.60; with `CC(C)(c1ccc(OC(F)(F)C(=O)CS(C)(=O)=O)cc1)c1cc(Cl)c(OCCCCl)c(Cl)c1` [Compound A102], no more than 6.60.
Still for that read-out and setting: with `CC(=O)Oc1ccc(C(C)(C)c2cc(Cl)c(OCCCCl)c(Cl)c2)cc1` [Compound A103] the figure was greater than 7.00; with `CC(=O)N(CC(=O)COc1ccc(C(C)(C)c2cc(Cl)c(OCCCCl)c(Cl)c2)cc1)S(C)(=O)=O` [Compound A104], no more than 6.60.

The values are drawn from patent US11485713B2, “Androgen receptor modulators and methods for their use” (ESSA Pharma, Inc., priority 2018, dated 2022).
